According to patent publication US20250282799A1, “SUBSTITUTED PYRIDO[4,3-d]PYRIMIDINES AS KRAS MODULATORS” (Alterome Therapeutics, Inc., priority 2023, published 2025):

tested on: KRAS G12V dependent lung adenocarcinoma cell line, NCI-H441; experiment: Cellular pERK (Thr202/Tyr204) FRET/HTRF assay; type: cell-based; settings: Homo sapiens, NCI-H441, cellular pERK (Thr202/Tyr204) HTRF, NCI-H441 cells
Outline: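 IC50 reflects inhibition of ERK1/2 Thr202/Tyr204 phosphorylation, quantified by HTRF after a 1 hr treatment of KRAS G12V-driven NCI-H441 cells. DMSO served as negative control.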

`C#Cc1c(F)ccc2cc(N)cc(-c3ncc4c(N5CCOC[C@H]6[C@H](F)[C@H]65)nc(OC[C@@]56CC[C@@H](C)N5C[C@H](F)C6)nc4c3F)c12` [Example 287, 5-Ethynyl-6-fluoro-4-(8-fluoro-2-(((2R,5R,7aS)-2-fluoro-5-methyltetrahydro-1H-pyrrolizin-7a(5H)-yl)methoxy)-4-((1S,7S,8S)-8-fluoro-5-oxa-2-azabicyclo[5.1.0]octan-2-yl)pyrido[4,3-d]pyrimidin-7-yl)naphthalen-2-amine] and `C#Cc1c(F)ccc2cc(N)cc(-c3ncc4c(N5CCOC[C@H]6[C@H](F)[C@H]65)nc(OC[C@]56C[C@@H](C)CN5CCC65CC5)nc4c3F)c12` (single isomer, unassigned) [Example 242] cannot be ordered by IC50: under 50 nM for the first, under 50 nM for the second.

`[2H]C([2H])(Oc1nc(N2CCOC[C@H]3[C@H](F)[C@H]32)c2cnc(-c3cc(N)cc4c(F)cc(F)c(C#C)c34)c(F)c2n1)[C@@]12CCCN1C[C@H](F)C2` [Example 108, 5-ethynyl-6,8-difluoro-4-(8-fluoro-4-((1S,7S,8S)-8-fluoro-5-oxa-2-azabicyclo[5.1.0]octan-2-yl)-2-(((2R,7aS)-2-fluorotetrahydro-1H-pyrrolizin-7a(5H)-yl)methoxy-d2)pyrido[4,3-d]pyrimidin-7-yl)naphthalen-2-amine] and `[2H]C([2H])(Oc1nc(N2CCOC[C@H]3[C@H](F)[C@H]32)c2cnc(-c3cc(N)cc4cccc(C#C)c34)c(F)c2n1)[C@@]12CCCN1C[C@H](F)C2` [Example 268, 5-ethynyl-4-(8-fluoro-4-((1S,7S,8S)-8-fluoro-5-oxa-2-azabicyclo[5.1.0]octan-2-yl)-2-(((2R,7aS)-2-fluorotetrahydro-1H-pyrrolizin-7a(5H)-yl)methoxy-d2)pyrido[4,3-d]pyrimidin-7-yl)naphthalen-2-amine] cannot be ordered by IC50: under 50 nM for the first, under 50 nM for the second.

`[2H]C([2H])(F)Oc1c(F)ccc2cccc(-c3ncc4c(N5CCOC[C@H]6[C@H](F)[C@H]65)nc(OC[C@@]56CCCN5CC(=C(F)F)C6)nc4c3F)c12` [Example 146, (1S,7S,8S)-2-(2-(((S)-2-(difluoromethylene)tetrahydro-1H-pyrrolizin-7a(5H)-yl)methoxy)-8-fluoro-7-(7-fluoro-8-(fluoromethoxy-d2)naphthalen-1-yl)pyrido[4,3-d]pyrimidin-4-yl)-8-fluoro-5-oxa-2-azabicyclo[5.1.0]octane] and `C#Cc1c(F)ccc2cccc(-c3ncc4c(N5CCOC[C@H]6[C@H](F)[C@H]65)nc(OC[C@@]56CCCN5CC(=C(F)F)C6)nc4c3F)c12` [Example 102, (1S,7S,8S)-2-(2-(((S)-2-(Difluoromethylene)tetrahydro-1H-pyrrolizin-7a(5H)-yl)methoxy)-7-(8-ethynyl-7-fluoronaphthalen-1-yl)-8-fluoropyrido[4,3-d]pyrimidin-4-yl)-8-fluoro-5-oxa-2-azabicyclo[5.1.0]octane] cannot be ordered by IC50: under 50 nM for the first, under 50 nM for the second.

First: [2H]C([2H])(Oc1nc(N2CCOC[C@@H]3[C@@H](F)[C@@H]32)c2c(OC)nc(-c3cccc4ccc(F)c(C#C)c34)c(F)c2n1)[C@@]12CCCN1C[C@H](F)C2 [Example 236, (1R,7R,8R)-2-(7-(8-ethynyl-7-fluoronaphthalen-1-yl)-8-fluoro-2-(((2R,7aS)-2-fluorotetrahydro-1H-pyrrolizin-7a(5H)-yl)methoxy-d2)-5-methoxypyrido[4,3-d]pyrimidin-4-yl)-8-fluoro-5-oxa-2-azabicyclo[5.1.0]octane]
Second: [2H]C([2H])(Oc1nc(N2CCOC[C@H]3[C@H](F)[C@H]32)c2cnc(-c3cc(NC(C)=O)cc4ccc(F)c(C#C)c34)c(F)c2n1)[C@@]12CCCN1C[C@H](F)C2 [Example 263, N-(5-ethynyl-6-fluoro-4-(8-fluoro-4-((1S,7S,8S)-8-fluoro-5-oxa-2-azabicyclo[5.1.0]octan-2-yl)-2-(((2R,7aS)-2-fluorotetrahydro-1H-pyrrolizin-7a(5H)-yl)methoxy-d2)pyrido[4,3-d]pyrimidin-7-yl)naphthalen-2-yl)acetamide]
The IC50 of the first is higher: 500 to 10000 nM for the first, 50 to 500 nM for the second.

`[2H]C([2H])(Oc1nc(N2CCOC[C@H]3[C@H](F)[C@H]32)c2cnc(-c3cc(N)cc4ccc(F)c(C#C)c34)c(F)c2n1)[C@@]12CCCN1C[C@]1(C[C@H]1F)C2` (single isomer, unassigned) [Example 312] and `[2H]C([2H])(Oc1nc(N2CCOC[C@H]3[C@H](F)[C@H]32)c2cnc(-c3cc(N)cc4ccc(F)c(C#C)c34)c(F)c2n1)[C@@]12CCCN1C[C@@H](CC#N)C2` (single isomer, unassigned) [Example 314] cannot be ordered by IC50: under 50 nM for the first, under 50 nM for the second.

First: C#Cc1c(F)c(F)cc2cccc(-c3ncc4c(N5CCOC[C@@H]6[C@@H](F)[C@@H]65)nc(OC[C@@]56CCCN5CC(=C(F)F)C6)nc4c3F)c12 [Example 106, (1R,7R,8R)-2-(2-(((S)-2-(difluoromethylene)tetrahydro-1H-pyrrolizin-7a(5H)-yl)methoxy)-7-(8-ethynyl-6,7-difluoronaphthalen-1-yl)-8-fluoropyrido[4,3-d]pyrimidin-4-yl)-8-fluoro-5-oxa-2-azabicyclo[5.1.0]octane]
Second: [2H]C([2H])(F)Oc1c(F)ccc2cc(N)cc(-c3ncc4c(N5CCOC[C@H]6[C@H](F)[C@H]65)nc(OC[C@@]56CC7(CC7)CN5CCC65CC5)nc4c3F)c12 [Example 227, 4-(2-(((S)-dihydro-5′H-dispiro[cyclopropane-1,1′-pyrrolizine-6′,1″- cyclopropan]-7a′(7′H)-yl)methoxy)-8-fluoro-4-((1S,7S,8S)-8-fluoro-5-oxa-2-azabicyclo[5.1.0]octan-2-yl)pyrido[4,3-d]pyrimidin-7-yl)-6-fluoro-5-(fluoromethoxy-d2)naphthalen-2-amine]
The IC50 of the first is higher: 500 to 10000 nM for the first, under 50 nM for the second. The second is the more potent here.

First: C#Cc1c(F)ccc2cc(O)cc(-c3ncc4c(N5CCCO[C@H]6C[C@H]65)nc(OC[C@@]5(C)CCCN5C)nc4c3F)c12 [Example 283, 4-(4-((1S,7R)-2-oxa-6-azabicyclo[5.1.0]octan-6-yl)-2-(((R)-1,2-dimethylpyrrolidin-2-yl)methoxy)-8-fluoropyrido[4,3-d]pyrimidin-7-yl)-5-ethynyl-6-fluoronaphthalen-2-ol]
Second: C=C1CN2CCC3(CC3)[C@@]2(COc2nc(N3CCCC[C@H]4[C@H](F)[C@H]43)c3cnc(-c4cc(N)c(F)c(C)c4C(F)(F)F)c(F)c3n2)C1 [Example 379, 2-fluoro-5-(8-fluoro-4-((1S,7R,8S)-8-fluoro-2-azabicyclo[5.1.0]octan-2-yl)-2-(((R)-6′-methylenetetrahydrospiro[cyclopropane-1,1′-pyrrolizin]-7a′(5′H)-yl)methoxy)pyrido[4,3-d]pyrimidin-7-yl)-3-methyl-4-(trifluoromethyl)aniline]
The IC50 of the first is lower: under 50 nM for the first, 50 to 500 nM for the second.

For `[2H]C([2H])(Oc1nc(N2CCOC[C@H]3[C@H](F)[C@H]32)c2cnc(-c3cc(N)cc(C4CC4)c3C(F)(F)F)c(F)c2n1)[C@@]12CCCN1C[C@H](F)C2` [Example 165, 3-cyclopropyl-5-(8-fluoro-4-((1S,7S,8S)-8-fluoro-5-oxa-2-azabicyclo[5.1.0]octan-2-yl)-2-(((2R,7aS)-2-fluorotetrahydro-1H-pyrrolizin-7a(5H)-yl)methoxy-d2)pyrido[4,3-d]pyrimidin-7-yl)-4-(trifluoromethyl)aniline], the IC50 was 50 to 500 nM.

same assay, conditions: Homo sapiens, NCI-H441, pERK HTRF, NCI-H441 cells (KRAS G12V)

`[2H]C([2H])(Oc1nc(N2CCC[C@@H]3[C@H](F)[C@@H]32)c2cnc(-c3cc(N)cc4cc(F)c(F)c(C#C)c34)c(F)c2n1)[C@@]12CCCN1C[C@H](F)C2` [Example 63, 5-Ethynyl-6,7-difluoro-4-(8-fluoro-4-((1R,6S,7S)-7-fluoro-2-azabicyclo[4.1.0]heptan-2-yl)-2-(((2R,7aS)-2-fluorotetrahydro-1H-pyrrolizin-7a(5H)-yl)methoxy-d2)pyrido[4,3-d]pyrimidin-7-yl)naphthalen-2-amine] and `[2H]C([2H])(Oc1nc(N2CCCO[C@H]3[C@@H](F)[C@H]32)c2cnc(-c3cc(N)cc4cc(F)c(F)c(C#C)c34)c(F)c2n1)[C@@]12CCCN1C[C@H](F)C2` [Example 21, 5-Ethynyl-6,7-difluoro-4-(8-fluoro-4-((1R,7S,8S)-8-fluoro-2-oxa-6-azabicyclo[5.1.0]octan-6-yl)-2-(((2R,7aS)-2-fluorotetrahydro-1H-pyrrolizin-7a(5H)-yl)methoxy-d2)pyrido[4,3-d]pyrimidin-7-yl)naphthalen-2-amine] fall in the same range of IC50: 500 to 10000 nM for the first, 500 to 10000 nM for the second.

`[2H]C([2H])([2H])Oc1c(F)c(F)cc2cc(N)cc(-c3ncc4c(N5CCCC[C@H]6[C@H](F)[C@H]65)nc(OC([2H])([2H])[C@@]56CCCN5C[C@H](F)C6)nc4c3F)c12` [Example 65, 6,7-Difluoro-4-(8-fluoro-4-((1S,7R,8S)-8-fluoro-2-azabicyclo[5.1.0]octan-2-yl)-2-(((2R,7aS)-2-fluorotetrahydro-1H-pyrrolizin-7a(5H)-yl)methoxy-d2)pyrido[4,3-d]pyrimidin-7-yl)-5-(methoxy-d3)naphthalen-2-amine] gave an IC50 of under 50 nM.

same assay, conditions: cellular pERK (Thr202/Tyr204) HTRF, NCI-H441 cells

`[2H]C([2H])(Oc1nc(N2CCOC[C@H]3[C@H](F)[C@H]32)c2cc(F)c(-c3cc(N)cc4ccc(F)c(C#C)c34)c(F)c2n1)[C@@]12CCCN1C[C@H](F)C2` [Example 355, 4-(6,8-difluoro-4-((1S,7S,8S)-8-fluoro-5-oxa-2-azabicyclo[5.1.0]octan-2-yl)-2-(((2R,7aS)-2-fluorotetrahydro-1H-pyrrolizin-7a(5H)-yl)methoxy-d2)quinazolin-7-yl)-5-ethynyl-6-fluoronaphthalen-2-amine] gave an IC50 of under 50 nM.
